Experimental data published in patent publication US8791132B2, “Compounds and methods for treatment of hypertension” (Medivation Technologies, Inc., priority 2011, dated 2014).
Several values for one entry are separate records, joined by “and”; a condition that tells them apart may be missing. Equal entries are not always repeated. Where two headings read alike, the source gives them in different places.

Molecular target: T1, human recombinant adrenergic α2B receptor (Homo sapiens, UniProt P18089)
T1 construct: expressed in transfected cells; host or cells: CHO-K1
T1 sequence (P18089 1-450): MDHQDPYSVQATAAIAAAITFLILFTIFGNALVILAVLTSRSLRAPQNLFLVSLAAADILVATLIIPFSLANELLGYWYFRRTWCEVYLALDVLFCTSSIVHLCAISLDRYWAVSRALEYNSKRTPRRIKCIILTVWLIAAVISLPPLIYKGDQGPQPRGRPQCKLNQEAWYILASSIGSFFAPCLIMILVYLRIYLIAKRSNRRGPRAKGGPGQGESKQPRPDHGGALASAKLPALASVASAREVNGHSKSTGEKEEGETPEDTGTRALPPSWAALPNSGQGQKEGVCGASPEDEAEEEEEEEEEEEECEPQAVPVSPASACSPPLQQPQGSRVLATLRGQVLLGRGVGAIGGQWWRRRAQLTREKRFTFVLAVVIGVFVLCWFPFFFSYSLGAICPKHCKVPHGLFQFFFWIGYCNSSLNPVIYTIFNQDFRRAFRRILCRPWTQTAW
Experiment: Radioligand binding, adrenergic α2B ([3H]Rauwolscine)
Details: for inhibition at 0.03 µM / inhibition at 0.1 µM / Percentage inhibition of ligand binding, Adrenergic α2B (0.1 μM) / Percentage inhibition of ligand binding, Adrenergic α2B (0.03 μM) / Percentage inhibition of ligand binding, Adrenergic α2B: [3H]Rauwolscine; for Ki: read-out: Ki α2B
Outline: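 Values are percent inhibition of specific radioligand binding. The receptor, expressed in CHO-K1 cells, was exposed to 2.5 nM [3H]Rauwolscine at 25° C for 60 min, with 10 μM Prazosin marking non-specific binding.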

[1] = compound at 0.03 μM, repeat assays, each datapoint shown, read-out: Percentage inhibition of ligand binding, Adrenergic α2B
[2] = compound at 0.1 μM, repeat assays, each datapoint shown, read-out: Percentage inhibition of ligand binding, Adrenergic α2B
[3] = read-out: Percentage inhibition of ligand binding, Adrenergic α2B (0.03 μM), compound at 0.03 μM, repeat datapoints each shown
[4] = read-out: Percentage inhibition of ligand binding, Adrenergic α2B (0.1 μM), compound at 0.1 μM, repeat datapoints each shown
[5] = compound at 0.1 μM, repeat datapoints each shown, 0.1 µM
[6] = compound at 0.03 μM, repeat datapoints each shown, 0.03 µM
[7] = compound at 0.03 μM, repeat assays, each datapoint shown, 0.03 µM
[8] = compound at 0.1 μM, repeat assays, each datapoint shown, 0.1 µM

| inhibition at 0.03 µM [3] [%] | inhibition at 0.1 µM [4] [%] | Percentage inhibition of ligand binding, Adrenergic α2B (0.1 μM) [5] [%] | Ki | SMILES | other results |
| --- | --- | --- | --- | --- | --- |
|  |  |  |  | CCN1CCc2c(c3cc(C)ccc3n2CCc2ccncc2)C1 [compound 85] | inhibition at 0.03 µM [1]: 40%; inhibition at 0.1 µM [2]: 60% |
| 70 | 92 |  |  | Cc1ccc(CCn2c3c(c4ccccc42)CN(C)CC3)cc1 [compound 181, 2,3,4,5-Tetrahydro-2-methyl-5-(4-methylphenethyl)-1H-pyrido[4,3-b]indole] |  |
|  | 91 | 93 |  | COc1ccc(/C(C)=C/n2c3c(c4cc(C)ccc42)CCN(C)CC3)cc1F [compound 241] |  |
| 94 | 100 | 101 | 0.52 nM | C/C(=C\n1c2c(c3cc(C)ccc31)CN(C)CC2)c1ccc(C)nc1 [compound 186] | Percentage inhibition of ligand binding, Adrenergic α2B (0.03 μM) [6]: 97% |
| 16 | 36 |  |  | CCN1CCc2c(c3cc(C)ccc3n2CCc2ccccc2)C1 [compound 201] |  |
|  |  |  |  | Cc1ccc2c(c1)c1c(n2CC2(c3ccccc3)OCCO2)CCN(C)C1 [compound 83] | inhibition at 0.03 µM [1]: 63%; inhibition at 0.1 µM [2]: 78% |
| 73 | 94 | 97 | 3.8 nM | C/C(=C\n1c2c(c3cc(Cl)ccc31)CN(C)CC2)c1ccncc1 [compound 185, 8-chloro-2,3,4,5-tetrahydro-2-methyl-5-((E)-2-(pyridin-4-yl)prop-1-enyl)-1H-pyrido[4,3-b]indole] | Percentage inhibition of ligand binding, Adrenergic α2B (0.03 μM) [6]: 77% |
| 42 | 58 | 71 | 17.4 nM | Cc1ccc2c(c1)c1c(n2C2=C(c3ccncc3)CCC2)CCN(C)C1 [compound 114] |  |
| 84 | 89 | 99 | 3.23 nM | Cc1ccc2c(c1)c1c(n2C2=C(c3ccc4c(ccn4C)c3)CCC2)CCN(C)C1 [compound 191, 2,8-dimethyl-5-(2-(1-methyl-1H-indol-5-yl)cyclopent-1-enyl)-2,3,4,5-tetrahydro-1H-pyrido[4,3-b]indole] |  |
| 7 | 22 |  |  | CCN1CCc2c(c3cc(C)ccc3n2CCc2ccc(C)cc2)C1 [compound 202] |  |
| 88 | 84 | 99 | 2.26 nM | Cc1ccc2c(c1)c1c(n2C2=C(c3ccc(C)s3)CCC2)CCN(C)C1 [compound 190, 2,8-dimethyl-5-(2-(5-methylthiophen-2-yl)cyclopent-1-enyl)-2,3,4,5-tetrahydro-1H-pyrido[4,3-b]indole] |  |
|  |  |  | 1.42 nM | Cc1cnc2c(c1)c1c(n2CCc2ccc(C)nc2)CCN2CCCC12 (single isomer, unassigned) [74a, 10-methyl-7-(2-(6-methylpyridin-3-yl)ethyl)-2,3,5,6,7,11c-hexahydro-1H-pyrido[3′,2′:4,5]pyrrolo[2,3-g]indolizine] | inhibition at 0.03 µM [1]: 93%; inhibition at 0.1 µM [2]: 101% |
|  | 87 |  | 9.84 nM and 10.7 nM and 12 nM | Cc1ccc2c(c1)c1c(n2CCc2ccc(CO)nc2)CCN(C)C1 [compound 91] | Percentage inhibition of ligand binding, Adrenergic α2B [7]: 56%; inhibition at 0.03 µM [1]: 53%; Percentage inhibition of ligand binding, Adrenergic α2B [8]: 83%; inhibition at 0.1 µM [2]: 82% |
| 11 | 47 |  |  | Cc1cnc2c(c1)c1c(n2CCc2ccc(C)nc2)CCN(C)C1 [II-110, 3,6-dimethyl-9-(2-(6-methylpyridin-3-yl)ethyl)-6,7,8,9-tetrahydro-5H-pyrrolo[2,3-b:4,5-c′]dipyridine] |  |
| 68 | 80 |  |  | Cc1ccc(C(O)Cn2c3c(c4cc(C)ccc42)CN(C)CC3)cc1 (racemic) [compound 183, racemic-2-(1,2,3,4-tetrahydro-2,8-dimethylpyrido[4,3-b]indol-5-yl)-1-p-tolylethanol] |  |
|  |  |  |  | Cc1ccc2c(c1)c1c(n2CC(C)(O)c2cccnc2)CCN(C)C1 (stereo not shown) [compound 5, 1-(1,2,3,4-tetrahydro-2,8-dimethylpyrido[4,3-b]indol-5-yl)-2-(pyridin-3-yl)propan-2-ol] | inhibition at 0.03 µM [1]: 100%; inhibition at 0.1 µM [2]: 96% |
| 39 | 55 | 70 | 20.5 nM | Cc1ccc2c(c1)c1c(n2CNc2ccccn2)CCN(C)C1 [compound 120, (2,8-dimethyl-1,2,3,4-tetrahydro-pyrido[4,3-b]indol-5-ylmethyl)-pyridin-2-yl-amine] |  |
|  |  |  | 5.89 nM | Cc1ccc2c(c1)c1c(n2CCc2cccnc2)CCN(C)C1 [compound 61] | Percentage inhibition of ligand binding, Adrenergic α2B [7]: 80%; inhibition at 0.03 µM [1]: 65%; Percentage inhibition of ligand binding, Adrenergic α2B [8]: 94%; inhibition at 0.1 µM [2]: 85% |
| 98 | 103 | 106 | 0.95 nM | CN1CCc2c(c3cccc(Cl)c3n2CCc2ccccc2)C1 [compound 216] |  |
| 96 | 104 | 107 | 0.86 nM | C/C(=C\n1c2c(c3cc(C)ccc31)CN(C)CC2)c1sccc1C [compound 189] |  |
|  | 63 | 76 |  | C/C(=C\n1c2c(c3cc(C)ccc31)CN(C)CC2)c1ccncn1 [compound 101] |  |
| 78 | 84 | 98 | 4.43 nM | C/C(=C\n1c2c(c3cc(C)ccc31)CN(C)CC2)c1cnc(N(C)C)nc1 [compound 187] |  |
|  | 83 | 97 |  | COc1ccc(/C(C)=C/n2c3c(c4cc(Cl)ccc42)CCN(C)CC3)cc1F [compound 240] |  |
|  | 96 | 103 |  | Cc1ccc2c(c1)c1c(n2CC(C)(O)c2ccc(O)cc2)CCN(C)C1 (stereo not shown) [compound 98] |  |
| 23 | 41 |  |  | CCN1CCc2c(c3cc(C)ccc3n2CC(O)c2ccc(C)cc2)C1 (stereo not shown) [compound 203] |  |
| 91 | 99 |  |  | Cc1ccc(CCn2c3c(c4cc(C)ccc42)CN(C)CC3)cc1 [compound 180, 2,3,4,5-tetrahydro-2,8-dimethyl-5-(4-methylphenethyl)-1H-pyrido[4,3-b]indole] |  |
| 83 | 91 |  |  | CN1CCc2c(c3ccccc3n2CCc2ccccc2)C1 [compound 182, 2,3,4,5-Tetrahydro-2-methyl-5-phenethyl-1H-pyrido[4,3-b]indole] |  |
